The values below are quoted from earlier work in US20080026050A1, “SOLID DOSE FORMULATIONS OF A THROMBIN RECEPTOR ANTAGONIST” (priority 2006, published 2008).

The data set concerns the target T1, thrombin receptor (Homo sapiens, UniProt P25116).
T1 sequence (P25116 22-425): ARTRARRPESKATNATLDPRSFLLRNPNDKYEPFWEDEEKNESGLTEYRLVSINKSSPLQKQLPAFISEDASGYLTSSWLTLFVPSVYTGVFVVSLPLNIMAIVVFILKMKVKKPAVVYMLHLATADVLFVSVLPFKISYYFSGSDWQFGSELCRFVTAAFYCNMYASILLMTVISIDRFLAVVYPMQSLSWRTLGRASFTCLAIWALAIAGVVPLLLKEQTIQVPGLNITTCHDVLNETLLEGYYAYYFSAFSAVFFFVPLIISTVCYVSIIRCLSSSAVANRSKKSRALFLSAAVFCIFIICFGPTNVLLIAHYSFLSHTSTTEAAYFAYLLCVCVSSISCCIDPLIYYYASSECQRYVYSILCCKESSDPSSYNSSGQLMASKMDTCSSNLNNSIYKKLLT
To be noted: general statement, refers to U.S. application Ser. No. 10/412,982.

As to `CCOC(=O)N[C@@H]1CC[C@@H]2[C@@H](C1)C[C@H]1C(=O)O[C@H](C)[C@H]1[C@H]2/C=C/c1ccc(-c2cccc(F)c2)cn1` [COMPOUND 1], the selectivity result is recorded as “good” and the “thrombin receptor antagonist activity (potency)” value was “good”.
